# Source: patent publication US8569229B2, “Compositions and methods which modulate G-protein signaling for the treatment of inflammatory disorders such as asthma and allergic conjunctivitis” (The Children's Hospital of Philadelphia, priority 2008, dated 2013)
# Ends that are not written are not given here.
# Tested on: OVA-sensitized rabbits
# Assay: Allergic conjunctivitis response to ocular OVA challenge in OVA-sensitized rabbits
# Format: in vivo, rabbit
# Settings: 15 μl of 1 μM topically 20 minutes prior to OVA, examined at 60 minutes
# Protocol: Similar to previous studies investigating either allergic asthma or allergic conjunctivitis in animal models, in vivo studies were conducted wherein adult NZW rabbits were initially systemically immunized with weekly intra-peritoneal (i.p.) injections of 2.5 mg ovalbumin (OVA) and 10 mg of alum adjuvant for 4-5 weeks. Following sensitization, as previously described in other animal models of allergic conjunctivitis (Groneberg D. A. et al. Allergy 58: 1101-1113, 2003), the OVA allergen was topically introduced into the conjunctival sac of the eyes of the rabbit to examine its ocular allergic inflammatory response. […] Accordingly, for each animal, 15 μl of a sterile 1 μM concentration of the MPS:anti-Gβγ peptide (prepared in PBS) was topically applied into the conjunctival sac of one eye 20 minutes prior to subsequent instillation of OVA (500 μg in 15 μl PBS), and the carrier MPS peptide alone (i.e., control “sham” pretreatment) was applied to the other eye 20 minutes prior to subsequent instillation of OVA. The eyes were then clinically examined for an acute ocular inflammatory response to OVA challenge and photographs were taken of each eye at 60 minutes following OVA challenge. […]
substance,measurement,setting,value
MPS-Phosducin-like protein C terminus (AAVALLPAVLLALLAVTDQLGEDFFAVDLEAFLQEFGLLPEKE; also: MPS attached) [anti-Gβγ peptide],clinical signs of allergic conjunctivitis after ocular OVA challenge,,virtually no clinical signs of conjunctival inflammation
same,clinical signs of allergic conjunctivitis after ocular OVA challenge,listed as MPS-conjugated anti-Gβγ peptide,signs of allergic conjunctivitis are absent
